From PubChem BioAssay (NCI)
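Growth conditions: 96-well plates. Treatment: test compound, 48 hours, 5 concentrations. Analysis: linear interpolation between bracketing concentrations; unreached endpoints set to highest concentration. TGI: concentration producing complete growth inhibition.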

Key:
Test in all cases: DTP human tumour cell line panel, 48 h
[1] = test system: 786-0 renal
[2] = test system: DLD-1 colon
[3] = test system: RXF 393 renal
[4] = test system: RPMI-8226 leukemia
[5] = test system: SK-MEL-28 melanoma
[6] = test system: M14 melanoma
[7] = test system: SK-MEL-5 melanoma
[8] = test system: HOP-92 NSCLC
[9] = test system: OVCAR-5 ovarian
[10] = test system: SF-539 CNS
[11] = test system: CAKI-1 renal
[12] = test system: MOLT-4 leukemia
[13] = test system: NCI-H23 lung
[14] = test system: NCI-H226 lung
[15] = test system: OVCAR-3 ovarian
[16] = test system: HCC-2998 colon
[17] = test system: SNB-19 CNS

Row | Structure (SMILES) | TGI [1] [µM] | TGI [2] [µM] | TGI [3] [µM] | TGI [4] [µM] | TGI [5] [µM] | TGI [6] [µM] | TGI [7] [µM] | TGI [8] [µM] | TGI [9] [µM] | TGI [10] [µM] | TGI [11] [µM] | TGI [12] [µM] | TGI [13] [µM] | TGI [14] [µM] | TGI [15] [µM] | TGI [16] [µM] | TGI [17] [µM]
1 | COc1ccc(C2S/C(=C\c3ccccc3O)C(=O)N2NC(=O)Cc2ccccc2)cc1 (configuration not stated) | > 100 | > 100 | > 100 | > 100 | > 100 | > 100 | > 100 | > 100 | > 100 | > 100 | > 100 | > 100 | > 100 | > 100 |  |  | 
2 | C=C(C=O)[C@@H]1C2OC(=O)C(=C)[C@@H]2CC(O)[C@@]1(C)CC (some centres not stated) | 10.2 | 9.7 | 10.3 | 10 | 12.5 | 19.1 | 19.8 | 4.19 | 32 | 23.6 | 24 | 9.08 | 13.3 | 59.8 | 21.3 | 31.1 | > 89.7
3 | COC(=O)C(C(=O)C(=O)Nc1cccc(OC)c1)c1cnc2ccccc2n1 (configuration not stated) | > 100 | > 100 | > 100 | > 100 | > 100 | > 100 | > 100 | > 100 | > 100 | > 100 | > 100 | > 100 | > 100 | > 100 |  | > 100 | > 100
